Our source for the Ki values is patent US7893256B2, “Azabicycloalkane compounds” (Theravance, Inc., priority 2003, dated 2011).

Each structure is given as a SMILES string.

The assay addresses T1, M3 muscarinic receptor (hM3) (Homo sapiens, UniProt P20309).
T1 construct: expressed in transfected cells; membranes
As to the kind of experiment: Radioligand binding assay for muscarinic receptors (Assay Test Procedure B). The note with it: radioligand displacement, CHO cell membranes, [3H]-NMS. Here is the method: CHO cell lines stably expressing cloned human hM1, hM2, hM3 and hM4 muscarinic receptor subtypes, respectively, were grown to near confluency in HAM's F-12 media supplemented with 10% FBS and 250 μg/mL Geneticin. The cells were grown in a 5% CO2, 37° C. incubator and lifted with 2 mM EDTA in dPBS. Cells were collected by 5 minute centrifugation at 650×g, and cell pellets were either stored frozen at −80° C. or membranes were prepared immediately for use. For membrane preparation, cell pellets were resuspended in lysis buffer and homogenized with a Polytron PT-2100 tissue disrupter (Kinematica AG; 20 seconds×2 bursts). Crude membranes were centrifuged at 40,000×g for 15 minutes at 4° C. […] The protein concentration of the membrane suspension was determined by the method described in Lowry et al., 1951, Journal of Biochemistry, 193, 265. […]
Radioligand binding assays for cloned human muscarinic receptors were performed in 96-well microtiter plates in a total assay volume of 100 μL. […] Filter plates were rinsed three times with wash buffer (10 mM HEPES) to remove unbound radioactivity. […] The plates were then counted in a PerkinElmer Topcount liquid scintillation counter (PerkinElmer Inc., Wellesley, Mass.). Binding data were analyzed by nonlinear regression analysis with the GraphPad Prism Software package (GraphPad Software, Inc., San Diego, Calif.) using the one-site competition model. […]
Background: In a radioligand displacement assay an active substance lowers the binding of a labelled ligand.

T1 sequence (P20309 whole entry): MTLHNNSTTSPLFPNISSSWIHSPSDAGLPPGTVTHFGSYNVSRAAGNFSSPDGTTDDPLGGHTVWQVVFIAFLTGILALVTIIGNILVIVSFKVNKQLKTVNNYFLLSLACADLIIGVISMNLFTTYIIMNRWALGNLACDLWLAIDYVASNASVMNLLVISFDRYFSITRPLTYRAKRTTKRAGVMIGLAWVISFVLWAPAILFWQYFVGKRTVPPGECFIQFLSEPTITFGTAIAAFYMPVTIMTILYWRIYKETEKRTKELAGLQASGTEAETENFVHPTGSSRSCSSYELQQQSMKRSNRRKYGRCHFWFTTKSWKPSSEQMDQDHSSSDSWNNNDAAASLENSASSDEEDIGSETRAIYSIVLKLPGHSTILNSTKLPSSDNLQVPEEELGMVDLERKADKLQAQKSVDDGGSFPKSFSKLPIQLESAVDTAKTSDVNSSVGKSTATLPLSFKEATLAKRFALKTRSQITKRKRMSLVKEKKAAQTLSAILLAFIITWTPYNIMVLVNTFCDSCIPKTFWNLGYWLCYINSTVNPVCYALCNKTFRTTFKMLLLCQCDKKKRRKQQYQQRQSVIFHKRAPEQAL

Take `C[N+]1(CCCCCCCCCNC[C@H](O)c2ccc(O)c3[nH]c(=O)ccc23)C2CC(OC(=O)C(O)(c3cccs3)c3cccs3)CC1C1OC12.C[N+]1(CCCCCCCCCNC[C@H](O)c2ccc(O)c3[nH]c(=O)ccc23)C2CC(OC(=O)C(O)(c3cccs3)c3cccs3)CC1C1OC12.O=C([O-])C(F)(F)F.O=C([O-])C(F)(F)F` (stereo partly drawn) [Example 1, 7-(2-Hydroxy-2,2-dithiophen-2-ylacetoxy)-9-{9-[(R)-2-hydroxy-2-(8-hydroxy-2-oxo-1,2-dihydroquinolin-5-yl)ethylamino]nonyl}-9-methyl-3-oxa-9-azonia-tricyclo[3.3.1.0^2,4]nonane Ditrifluoroacetate]: the Ki (in general, the equilibrium dissociation constant of an inhibitor or competing ligand from its target) was less than 0.05 µM.
